From patent publication US11358961B2, “Anti-HCMV compositions and methods” (Evrys Bio, LLC, priority 2014, dated 2022)

Test system: human cytomegalovirus (HCMV)
Experiment: Antiviral activity against HCMV in vitro (virus yield / replication assay, IE protein readout)
Type: cell-based
Conditions: Human betaherpesvirus 5, 96 h, read-out: HCMV IC50
Protocol: Assessing Antiviral Activity Against Human Cytomegalovirus (HCMV)
To assess their antiviral activity, some compounds were tested against human cytomegalovirus (HCMV) in vitro. Human MRCS cells were grown in Dulbecco's Modified Eagle Medium (DMEM) supplemented with 10% fetal bovine serum (FBS) and infected with an HCMV variant expressing GFP tagged pUL99 (the product of late viral UL99 gene) at a multiplicity of 1 infectious unit (IU) per cell. One hour later, medium of the cells was replaced with fresh medium containing the indicated compounds at 50, 25, 12.5, 6.25, 3.13, 1.56, 0.78, 0.39 μM or the carrier in which the compounds are dissolved (DMSO). Final concentration of DMSO was 0.5% in each treatment. Virus yield in the culture supernatant was determined at 96 hours after infection by infecting fresh MRCS cells and assaying viral IE1 protein expression. Results were plotted using either Prism Software or CDD Vault (CDD Vault was developed by Collaborative Drug Discovery, Inc., 1633 Bayshore Hwy, Suite 342, Burlingame, Calif. 94010) in order to calculate IC50s.
Alternatively, antiviral efficacy of some compounds was assessed by inhibition of HCMV replication during in vitro replication assays. Briefly, confluent monolayers of MRCS fibroblasts in a 96 well plate format (˜1.0×10^4 cells/well) were infected with an AD169 strain of HCMV for one hour. After the initial incubation hour, virus containing media was removed and 100 ul of media with sequential dilutions of FORGE compounds added to each well. The concentrations of the FORGE compounds were 50 μM, 25 μM, 12.5 μM, 6.25 μM, 3.125 μM, 1.56 μM, and 0.78125 μM as well as a vehicle control (0.5% DMSO). The concentration of DMSO was constant between all conditions. Assays were performed in duplicate. Infected plates were returned to the incubator and the viral infection was allowed to progress for four days. On the fourth day, 50 μL of cell free supernatant was collected from each well and used to infect a new 96 well plate seeded with a confluent monolayer of MRCS fibroblasts along with 50 μL of media to bring the total volume to 100 μL. The next day the media was removed and the infected monolayer was fixed with cold methanol, and Immediate Early proteins were detected by immunofluorescence assays to quantify the number of cells that were infected with HCMV. IE gene expression was quantified within five random fields within each well and corresponding numbers were utilized to determine viral replication. Results from each well were normalized to the vehicle control well so as to allow a percent reduction from no drug treatment to be calculated. Results were plotted using either Prism Software or CDD Vault in order to calculate IC50s.

`C=C(c1ccc2nccnc2c1)c1cnc(N2CCc3ccccc3C2)s1` [Example 3] and `O=C(c1ccc2nccnc2c1)c1cnc(N2CCc3ccccc3C2)s1` [Example 5] cannot be ordered by IC50: greater than 50 µM for the first, greater than 50 µM for the second.

First: CC(C)OC1CN(c2ncc(Cc3cccc(-n4cccn4)c3)s2)C1 [Example 30]
Second: CC(C)OC1CN(c2ncc(Cc3ccc(-n4cccn4)cc3)s2)C1 [Example 22]
The IC50 of the first is lower: 12 µM for the first, greater than 50 µM for the second.

`CC(c1cccc(-n2ccnc2)c1)c1cnc(N2CCc3ccc(C#N)cc3C2)s1` (centres unmarked) [Example SBX080] and `CC(c1cccc(-n2cccn2)c1)c1cnc(N2CCc3ccc(C#N)cc3C2)s1` (centres unmarked) [Example SBX082] are within 1.5-fold of each other in IC50: 4.9 µM for the first, 7.3 µM for the second.

`OC(c1ccc2nccnc2c1)c1cnc(N2CCc3ccccc3C2)s1` (centres unmarked) [Example 6] and `c1ccc2c(c1)CCN(c1ncc(Cc3ccc4nccnc4c3)s1)C2` [Example 4] are within 1.5-fold of each other in IC50: 5.1 µM for the first, 5.6 µM for the second.

`c1ccc(CNc2ncc(Cc3ccc(-n4cccn4)cc3)s2)cc1` [Example 21] and `c1ccc(CNc2ncc(Cc3cccc(-n4cccn4)c3)s2)cc1` [Example 29] cannot be ordered by IC50: greater than 50 µM for the first, greater than 50 µM for the second.

`c1ccc2c(c1)CCCN2c1ncc(Cc2ccc(-n3cccn3)cc2)s1` [Example 23] and `c1cc(Cc2cnc(N3CCCc4ccccc43)s2)cc(-n2cccn2)c1` [Example 31] cannot be ordered by IC50: greater than 50 µM for the first, greater than 50 µM for the second.

`CC(O)(c1ccc2nccnc2c1)c1cnc(-c2cnc(Cl)s2)s1` (centres unmarked) [Example 1] and `CC(O)(c1ccc2nccnc2c1)c1cnc(N2CCc3ccccc3C2)s1` (centres unmarked) [Example 2] are within 1.5-fold of each other in IC50: 21.4 µM for the first, 24 µM for the second.

`CC(C)c1ccc(CNc2ncc(Cc3cccc(-n4cccn4)c3)s2)cc1` [Example 32] and `CC(C)c1ccc(CNc2ncc(Cc3ccc(-n4cccn4)cc3)s2)cc1` [Example 24] cannot be ordered by IC50: greater than 50 µM for the first, greater than 50 µM for the second.

`C=C(c1ccc2nccnc2c1)c1cnc(NCc2ccccc2)s1` [Example 12] and `CC(c1ccc2nccnc2c1)c1cnc(N2CCC(Cc3ccccc3)CC2)s1` (centres unmarked) [Example 11] cannot be ordered by IC50: greater than 50 µM for the first, greater than 25 µM for the second.

`CC(c1ccc(-c2ncccn2)cc1)c1cnc(N2CCc3ccccc3C2)s1` (centres unmarked) [Example 17] and `CC(c1ccc(-n2cccn2)cc1)c1cnc(N2CCc3ccccc3C2)s1` (centres unmarked) [Example 13] are within 1.5-fold of each other in IC50: 4.2 µM for the first, 3.6 µM for the second.

`CC(c1cccc(-n2cccn2)c1)c1cnc(N2CCc3ccc(C(N)=O)cc3C2)s1` (centres unmarked) [Example SBX088] and `COC(c1cccc(-n2cccn2)c1)c1cnc(N2CCc3ccc(C(N)=O)cc3C2)s1` (centres unmarked) [Example SBX087] are within 1.5-fold of each other in IC50: 1.6 µM for the first, 1.4 µM for the second.

`c1cc(Cc2cnc(N3CCc4ccccc4C3)s2)cc(-n2cccn2)c1` [Example 20] and `c1ccc2c(c1)CCN(c1ncc(Cc3ccc(-n4cccn4)cc3)s1)C2` [Example 16] are within 1.5-fold of each other in IC50: 8.9 µM for the first, 12.5 µM for the second.

`c1cc(Cc2cnc(N3CCC4OCCCC4C3)s2)cc(-n2cccn2)c1` (centres unmarked) [Example 33] and `c1cnn(-c2ccc(Cc3cnc(N4CCC5OCCCC5C4)s3)cc2)c1` (centres unmarked) [Example 25] are within 1.5-fold of each other in IC50: 11.5 µM for the first, 11 µM for the second.

First: c1cnn(-c2ccc(Cc3cnc(N4CCOCC4)s3)cc2)c1 [Example 27]
Second: c1cc(Cc2cnc(N3CCOCC3)s2)cc(-n2cccn2)c1 [Example 35]
The IC50 of the first is lower: 10.3 µM for the first, greater than 27 µM for the second. The first is the more potent here.

Compared with `C=C(c1ccc(-n2cccn2)cc1)c1cnc(N2CCc3ccccc3C2)s1` [Example 14], `C=C(c1cccc(-n2cccn2)c1)c1cnc(N2CCc3ccccc3C2)s1` [Example 19] is 4.1-fold lower in IC50: 28.7 µM for the first, 7 µM for the second. The second is the more potent here.

First: CC(c1cnc(N2CCc3ccccc3C2)s1)c1c[nH]c2ccccc12 (centres unmarked) [Example 9]
Second: CC(c1ccccc1)c1cnc(N2CCc3ccccc3C2)s1 (centres unmarked) [Example 7]
The IC50 of the first is lower: 12.7 µM for the first, greater than 50 µM for the second. The first is the more potent here.

Compared with `N#Cc1ccc2c(c1)CN(c1ncc(Cc3ccc(-n4cccn4)cc3)s1)CC2` [Example 28], `N#Cc1ccc2c(c1)CN(c1ncc(Cc3cccc(-n4cccn4)c3)s1)CC2` [Example 36] is 2.9-fold lower in IC50: 9.7 µM for the first, 3.3 µM for the second. The second is the more potent here.

Compared with `CC(c1ccc(N2CCCCC2)cc1)c1cnc(N2CCc3ccccc3C2)s1` (centres unmarked) [Example 15], `CC(c1cccnc1)c1cnc(N2CCc3ccccc3C2)s1` (centres unmarked) [Example 8] is lower in IC50: greater than 25 µM for the first, 16.4 µM for the second.

Compared with `CC(c1cccc(-n2cccn2)c1)c1cnc(N2CCc3ccc(Br)cc3C2)s1` (centres unmarked) [Example SBX084], `CC(c1cccc(-n2cccn2)c1)c1cnc(N2CCc3ccccc3C2)s1` (centres unmarked) [Example 18] is 2.4-fold lower in IC50: 3.8 µM for the first, 1.6 µM for the second. The second is the more potent here.

`CC(Nc1ncc(Cc2ccc(-n3cccn3)cc2)s1)c1ccccc1` (centres unmarked) [Example 26] and `CC(Nc1ncc(Cc2cccc(-n3cccn3)c2)s1)c1ccccc1` (centres unmarked) [Example 34] cannot be ordered by IC50: greater than 50 µM for the first, greater than 50 µM for the second.

`CC(c1ccc2nccnc2c1)c1cnc(N2CCC(c3ccccc3)C2)s1` (centres unmarked) [Example 10] gave an IC50 greater than 25 µM.
